Usually IC50 stands for the concentration needed to halve the response being measured.

The target in the test is T1, Dihydrofolate reductase (Pneumocystis carinii, UniProt P16184).
T1 sequence (P16184 whole entry): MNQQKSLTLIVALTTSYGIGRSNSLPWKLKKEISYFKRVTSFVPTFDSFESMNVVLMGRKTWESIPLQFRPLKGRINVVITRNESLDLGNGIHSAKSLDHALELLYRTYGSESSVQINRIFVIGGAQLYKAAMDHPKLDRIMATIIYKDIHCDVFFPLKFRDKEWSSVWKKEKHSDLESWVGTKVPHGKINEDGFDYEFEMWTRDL
As to the kind of experiment: Inhibition of Pneumocystis carinii DHFR.
In turn, `CCc1nc(N)nc(N)c1-c1ccc(Cl)c(N(C)Cc2ccccc2)c1` had an IC50 of 1070 nM. This lies in the single-digit micromolar range.
As for `CCc1nc2nc(N)nc(N)c2nc1CC`, the IC50 was determined as 620 nM.
To `N=C(N)c1ccc(N2CCN(c3ccc(-c4nc5ccccc5[nH]4)cc3)CC2)cc1` belongs 170 nM; to `COc1cc(C)c2c(OC3CCCCC3C(F)(F)F)c(OC)cc(NC(C)CCCN)c2n1` (stereo not given), 711 nM.
In the case of `COc1cc(Cc2cnc(N)nc2N)cc(C#CCCC(=O)O)c1OC` it was 1000 nM.
